Patent US7875599B2, “C-17-heteroaryl steroidal CYP17 inhibitors/antiandrogens, in vitro biological activities, pharmacokinetics and antitumor activity” (University of Maryland, priority 2005, dated 2011)
“Also recorded” adds a separate entry of the source.

Experiments:
CYP17 = molecular target: T1, CYP17 (Homo sapiens, UniProt P05093); test: CYP17 inhibition, acetic acid releasing assay with intact P450c17-expressing E. coli
T1 sequence (P05093 1-508): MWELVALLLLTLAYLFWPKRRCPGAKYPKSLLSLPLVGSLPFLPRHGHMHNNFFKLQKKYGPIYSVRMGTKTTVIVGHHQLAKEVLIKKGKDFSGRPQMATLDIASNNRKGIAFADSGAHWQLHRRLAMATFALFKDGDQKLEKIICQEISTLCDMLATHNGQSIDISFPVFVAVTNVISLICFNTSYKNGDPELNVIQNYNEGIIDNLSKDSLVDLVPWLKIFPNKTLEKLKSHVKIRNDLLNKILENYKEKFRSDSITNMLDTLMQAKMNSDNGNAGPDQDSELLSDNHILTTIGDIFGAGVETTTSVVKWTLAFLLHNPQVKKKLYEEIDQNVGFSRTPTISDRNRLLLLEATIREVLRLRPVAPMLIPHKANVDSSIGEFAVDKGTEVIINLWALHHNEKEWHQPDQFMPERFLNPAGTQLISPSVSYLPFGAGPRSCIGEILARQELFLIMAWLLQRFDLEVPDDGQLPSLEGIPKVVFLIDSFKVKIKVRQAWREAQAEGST

[1] = test system: LAPC4 human prostate tumor xenograft; test: LAPC4 xenograft, first experiment (established tumors, 4 weeks of treatment); type: in vivo, mouse; settings: 28 days
Method: In the first experiment, the effect of compounds 5 and 6 on the growth of well-established LAPC4 prostate cancer tumors in SCID mice is determined, and castration is used as the reference treatment. Tumor-bearing mice are assigned (n=5/group) to receive one of two doses of 5 or 6 (0.15 mmol/kg once-daily or 0.15 mmol/kg twice-daily). Tumor volumes are measured weekly and compared with controls receiving vehicle or castrated mice.
In Vivo Antitumor Studies (LAPC-4 Prostate Cancer Xenografts): All animal studies are performed according to the guidelines and approval of the Animal Care Committee of the University of Maryland School of Medicine, Baltimore. Male severe combined immunodeficient (SCID) mice 4-6 weeks of age purchased from the National Cancer Institute-Frederick Cancer Research and Development Center (Fredrick, Md.) are housed in a pathogen-free environment under controlled conditions of light and humidity and allowed free access to food and water. Tumors are developed from LAPC4 cells inoculated subcutaneously (s.c.) in the mice essentially as previously described (21). LAPC4 cells are grown in IMEM with 15% FBS plus 1% PS and 10 nm DHT until 80% confluent. Cells are scraped into DPBS, collected by centrifugation, and resuspended in Matrigel (10 mg/ml) at 3×10^7 cells/ml. Mice are injected s.c. with 100 μl of the cell suspension at one site on each flank. Tumors are measured weekly with calipers, and tumor volumes are calculated by the formula: […]).
In the first experiment, LAPC4 tumors are allowed to grow for 8-10 weeks following inoculation. […] Mice are castrated under methoxyfluorane anesthesia. Compounds 5 and 6 were prepared at 17.2 mg/ml in a 0.3% solution of hydroxypropyl cellulose in saline, and mice receiv s.c. injections daily. Control and castrated mice are treated with vehicle only. Tumors are measured weekly for the 4 weeks of treatment and tumor volumes are calculated. At the end of the treatment period, the animals are sacrificed under halothane anesthesia; tumors are excised, weighed and stored at −80° C. Animals are also weighed weekly and monitored for general health status and signs of possible toxicity due to treatment.
FIG. 6: In vivo antitumor activity of 5, 6 and orchidectomy on the growth of LAPC4 prostate tumors in male SCID mice. Groups of five mice with LAPC-4 tumors were treated with 5 (0.15 mmol/kg/day or 0.30 mmol/kg/day. Tumors volumes were measured weekly, and the percentage of change in tumor volume was determined after 28 days of treatment. The standard deviations of tumor volumes (not shown) were ±10-12% of the mean values.

| Structure (SMILES) | IC50 (CYP17) [nM] | reduction of average final tumor volume compared to vehicle-treated control ([1]; 0.15 mmol/kg once daily s.c.) | reduction of average final tumor volume compared to vehicle-treated control ([1]; 0.15 mmol/kg twice daily s.c.) |
| --- | --- | --- | --- |
| C[C@]12CC[C@H](O)CC1=CC[C@@H]1[C@@H]2CC[C@]2(C)C(n3cnc4ccccc43)=CC[C@@H]12 [Compound 5, 3β-Hydroxy-17-(1H-benzimidazol-1-yl)androsta-5,16-diene] | 300 | 41% | 86.5% |
| C[C@]12CCC(=O)C=C1CC[C@@H]1[C@@H]2CC[C@]2(C)C(n3cnc4ccccc43)=CC[C@@H]12 [Compound 6, 17-(1H-benzimidazol-1-yl)androsta-4,16-diene-3-one] | 915 | ineffective | stimulation of tumor growth; also recorded: enhances tumor growth |
